Tests used:
Format in all cases: cell-based
Proteus vulgaris = experiment: MIC against Gram-negative bacteria: Proteus vulgaris
Summary of the method: (§1)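 Two-fold serial dilutions of each purified human EGF domain protein, three replicate wells per level, were combined with bacteria at a final 5×10^5 CFU/mL in LB. Cultures were shaken at 175 rpm, 37° C. The MIC was taken as the minimum concentration preventing growth.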

Moraxella catarrhalis = experiment: MIC against Gram-negative bacteria: Moraxella catarrhalis
Summary of the method: as §1

Enterobacter cloacae = experiment: MIC against Gram-negative bacteria: Enterobacter cloacae
Summary of the method: as §1

Klebsiella pneumonia = experiment: MIC against Gram-negative bacteria: Klebsiella pneumonia
Summary of the method: as §1

Aeromonas hydrophila = experiment: MIC against Gram-negative bacteria: Aeromonas hydrophila
Summary of the method: as §1

Serratia marcescens = experiment: MIC against Gram-negative bacteria: Serratia marcescens
Summary of the method: as §1

Citrobacter diversus = experiment: MIC against Gram-negative bacteria: Citrobacter diversus
Summary of the method: as §1

E. coli DH5α = experiment: Antibacterial activity: MIC and growth curve against E. coli DH5α in 96-well plate; conditions: minimal inhibitory concentration against E. coli DH5α; 96-well plate, 5×10^5 CFU/mL, 37° C., judged after 8 h
Summary of the method: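 Log-phase DH5α (OD600 about 0.5, 37° C, 185 rpm in LB) was pelleted, resuspended in fresh LB and seeded at 5×10^5 CFU/mL with recombinant protein at 50, 25 and 12.5 μg/mL (two-fold series), in triplicate. Plates were shaken at 175 rpm, 37° C, and OD600 was read every 30 min. MIC was the lowest concentration with no growth.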

Pseudomonas aeruginosa = experiment: MIC against Gram-negative bacteria: Pseudomonas aeruginosa
Summary of the method: as §1

Proteus mirabilis = experiment: MIC against Gram-negative bacteria: Proteus mirabilis
Summary of the method: as §1

E. coli BL21 = experiment: MIC against Gram-negative bacteria: E. coli BL21
Summary of the method: as §1

[1] = P. vulgaris, 10 h cultivation at 37° C., 5×10^5 CFU/mL
[2] = M. catarrhalis, 10 h cultivation at 37° C., 5×10^5 CFU/mL
[3] = E. cloacae, 10 h cultivation at 37° C., 5×10^5 CFU/mL
[4] = K. pneumonia, 10 h cultivation at 37° C., 5×10^5 CFU/mL
[5] = A. hydrophila, 10 h cultivation at 37° C., 5×10^5 CFU/mL
[6] = S. marcescens, 10 h cultivation at 37° C., 5×10^5 CFU/mL
[7] = C. diversus, 10 h cultivation at 37° C., 5×10^5 CFU/mL
[8] = P. aeruginosa, 10 h cultivation at 37° C., 5×10^5 CFU/mL
[9] = P. mirabilis, 10 h cultivation at 37° C., 5×10^5 CFU/mL
[10] = E. coli BL21, 10 h cultivation at 37° C., 5×10^5 CFU/mL
[11] = 96-well plate, 5×10^5 CFU/mL, 37° C., 10 h

PRT1020 (SRQTCANNRHQCSVHAECRDYATGFCCSCVAGYTGNGRQCV; listed as Homo sapiens)
MIC (Proteus vulgaris; P. vulgaris, 10 h cultivation at 37° C.): 50 µg/mL
MIC (Moraxella catarrhalis; M. catarrhalis, 10 h cultivation at 37° C.): 12.5 µg/mL
MIC (Enterobacter cloacae; E. cloacae, 10 h cultivation at 37° C.): 12.5 µg/mL
MIC (Klebsiella pneumonia; K. pneumonia, 10 h cultivation at 37° C.): 25 µg/mL
MIC (Aeromonas hydrophila; A. hydrophila, 10 h cultivation at 37° C.): 12.5 µg/mL
MIC (Serratia marcescens; S. marcescens, 10 h cultivation at 37° C.): 25 µg/mL
MIC (Citrobacter diversus; C. diversus, 10 h cultivation at 37° C.): 12.5 µg/mL
MIC (E. coli DH5α): 12.5 µg/mL
MIC (Pseudomonas aeruginosa; P. aeruginosa, 10 h cultivation at 37° C.): 12.5 µg/mL
MIC (Proteus mirabilis; P. mirabilis, 10 h cultivation at 37° C.): 12.5 µg/mL
MIC (E. coli BL21; E. coli BL21, 10 h cultivation at 37° C.): 12.5 µg/mL

PRT796 (SGDFCIPLCTEECVHGRCVSPDTCHCEPGWGGPDCS; listed as Homo sapiens)
MIC (μg/mL) P. vulgaris (Proteus vulgaris; [1]): 50 µg/mL
MIC (μg/mL) M. catarrhalis (Moraxella catarrhalis; [2]): 50 µg/mL
MIC (μg/mL) E. cloacae (Enterobacter cloacae; [3]): 50 µg/mL
MIC (μg/mL) K. pneumonia (Klebsiella pneumonia; [4]): 50 µg/mL
MIC (μg/mL) A. hydrophila (Aeromonas hydrophila; [5]): 50 µg/mL
MIC (μg/mL) S. marcescens (Serratia marcescens; [6]): 50 µg/mL
MIC (μg/mL) C. diversus (Citrobacter diversus; [7]): 5 µg/mL
MIC (E. coli DH5α): 25 µg/mL
MIC (μg/mL) P. aeruginosa (Pseudomonas aeruginosa; [8]): 12.5 µg/mL
MIC (μg/mL) P. mirabilis (Proteus mirabilis; [9]): 12.5 µg/mL
MIC (μg/mL) E. coli BL21 (E. coli BL21; [10]): 50 µg/mL

PRT891 (DVDECASTPCKNGAKCLDGPNTYTCVCTEGYTGTHCE; listed as Homo sapiens)
MIC (μg/mL) P. vulgaris (Proteus vulgaris; [1]): 25 µg/mL
MIC (μg/mL) M. catarrhalis (Moraxella catarrhalis; [2]): 25 µg/mL
MIC (μg/mL) E. cloacae (Enterobacter cloacae; [3]): 12.5 µg/mL
MIC (μg/mL) K. pneumonia (Klebsiella pneumonia; [4]): 25 µg/mL
MIC (μg/mL) A. hydrophila (Aeromonas hydrophila; [5]): 25 µg/mL
MIC (μg/mL) S. marcescens (Serratia marcescens; [6]): 50 µg/mL
MIC (μg/mL) C. diversus (Citrobacter diversus; [7]): 12.5 µg/mL
MIC (E. coli DH5α): 12.5 µg/mL
MIC (μg/mL) P. aeruginosa (Pseudomonas aeruginosa; [8]): 12.5 µg/mL
MIC (μg/mL) P. mirabilis (Proteus mirabilis; [9]): 12.5 µg/mL
MIC (μg/mL) E. coli BL21 (E. coli BL21; [10]): 25 µg/mL

PRT818 (DCRSACNCTAGAACDAVNGSCLCPAGRRGPRCA; listed as Homo sapiens)
MIC (μg/mL) P. vulgaris (Proteus vulgaris; [1]): 12.5 µg/mL
MIC (μg/mL) M. catarrhalis (Moraxella catarrhalis; [2]): 25 µg/mL
MIC (μg/mL) E. cloacae (Enterobacter cloacae; [3]): 12.5 µg/mL
MIC (μg/mL) K. pneumonia (Klebsiella pneumonia; [4]): 12.5 µg/mL
MIC (μg/mL) A. hydrophila (Aeromonas hydrophila; [5]): 25 µg/mL
MIC (μg/mL) S. marcescens (Serratia marcescens; [6]): 12.5 µg/mL
MIC (μg/mL) C. diversus (Citrobacter diversus; [7]): 12.5 µg/mL
MIC (E. coli DH5α): 25 µg/mL
MIC (μg/mL) P. aeruginosa (Pseudomonas aeruginosa; [8]): 25 µg/mL
MIC (μg/mL) P. mirabilis (Proteus mirabilis; [9]): 25 µg/mL
MIC (μg/mL) E. coli BL21 (E. coli BL21; [10]): 50 µg/mL

PRT1384 (STRTCPRDCRGRGRCEDGECICDTGYSGDDC; listed as Homo sapiens)
MIC against P. vulgaris (Proteus vulgaris; Proteus vulgaris, 5×10^5 CFU/mL, 10 h cultivation at 37° C.): 50 µg/mL
MIC against M. catarrhalis (Moraxella catarrhalis; Moraxella catarrhalis, 5×10^5 CFU/mL, 10 h cultivation at 37° C.): 12.5 µg/mL
MIC against E. cloacae (Enterobacter cloacae; Enterobacter cloacae, 5×10^5 CFU/mL, 10 h cultivation at 37° C.): 25 µg/mL
MIC against K. pneumonia (Klebsiella pneumonia; Klebsiella pneumonia, 5×10^5 CFU/mL, 10 h cultivation at 37° C.): 50 µg/mL
MIC against A. hydrophila (Aeromonas hydrophila; Aeromonas hydrophila, 5×10^5 CFU/mL, 10 h cultivation at 37° C.): 25 µg/mL
MIC against S. marcescens (Serratia marcescens; Serratia marcescens, 5×10^5 CFU/mL, 10 h cultivation at 37° C.): 25 µg/mL
MIC against C. diversus (Citrobacter diversus; Citrobacter diversus, 5×10^5 CFU/mL, 10 h cultivation at 37° C.): 25 µg/mL
MIC (E. coli DH5α): 25 µg/mL
MIC against P. aeruginosa (Pseudomonas aeruginosa; Pseudomonas aeruginosa, 5×10^5 CFU/mL, 10 h cultivation at 37° C.): 25 µg/mL
MIC against P. mirabilis (Proteus mirabilis; Proteus mirabilis, 5×10^5 CFU/mL, 10 h cultivation at 37° C.): 25 µg/mL
MIC against E. coli BL21 (E. coli BL21; E. coli BL21, 5×10^5 CFU/mL, 10 h cultivation at 37° C.): 12.5 µg/mL

PRT725 (VPNLCKQICSHLCLLRPGGYSCACPQGSSFIEGSTTECD; listed as Homo sapiens)
MIC P. vulgaris (Proteus vulgaris; [11]): 50 µg/mL
MIC M. catarrhalis (Moraxella catarrhalis; [11]): 25 µg/mL
MIC E. cloacae (Enterobacter cloacae; [11]): 12.5 µg/mL
MIC K. pneumonia (Klebsiella pneumonia; [11]): 50 µg/mL
MIC A. hydrophila (Aeromonas hydrophila; [11]): 25 µg/mL
MIC S. marcescens (Serratia marcescens; [11]): 25 µg/mL
MIC C. diversus (Citrobacter diversus; [11]): 50 µg/mL
MIC (E. coli DH5α): 25 µg/mL
MIC P. aeruginosa (Pseudomonas aeruginosa; [11]): 25 µg/mL
MIC P. mirabilis (Proteus mirabilis; [11]): 12.5 µg/mL
MIC E. coli BL21 (E. coli BL21; [11]): 12.5 µg/mL
